pEC50, pIC50: −log10 of the molar value.
Tests used:
[1] = system: DU-145; experiment: Growth inhibition of human DU145 cells incubated for 72 hrs by MTT assay; format: functional, cell-based; conditions: DU-145, 72 h
[2] = Cytotoxicity against human neural progenitor cell by CellTiter-Glo Luminescent Cell Viability Assay; format: tissue-based; conditions: neural progenitor cells
[3] = system: HCT-116; experiment: Anticancer activity against human HCT116 cells incubated for 5 days by MTT assay; format: functional, cell-based; conditions: HCT-116, 120 h
[4] = system: Zika virus; experiment: Antiviral activity against ZIKV infected in human neural progenitor cells incubated with cells for 24 hrs prior to viral infection followed by replacement of fresh medium containing compound and measured at 48 hrs post infection by RT-PCR method; conditions: Neural Progenitor Cell
[5] = system: LNCaP; experiment: Growth inhibition of human LNCaP cells incubated for 72 hrs by MTT assay; format: functional, cell-based

Q: With CCn1cc(C(=O)O)c(=O)c2cc(F)c(N3CCNCC3)nc21 [ENOXACIN] as the compound, how does the pEC50 [1] read?
A: 3.85

Q: And the CC50 [2]?
A: 176 µM

Q: And the pEC50 [3]?
A: 3.91

Q: And the pIC50 [4]?
A: 4.28

Q: And the pEC50 [5]?
A: 3.98

From ChEMBL document CHEMBL4680274, “Modulating microRNA Processing: Enoxacin, the Progenitor of a New Class of Drugs” (J Med Chem, 2020)
